Literature values as cited in patent US20260183709A1, “GAS PURIFICATION METHOD AND GAS PURIFIER” (priority 2022, published 2026).
Where two headings read alike, the source gives them in different places.

Assays:
[1] = system: escherichia coli; settings: in the 25° C. air; ozone concentration 0.05 ppm; acting time 30 minutes
[2] = system: pseudomonas aeruginosa; settings: ozone concentration 0.08-0.6 ppm; acting time 30 minutes
[3] = system: staphylococcus aureus; settings: in the air; ozone concentration 9 ppm; acting time 60 minutes
[4] = system: staphylococcus albus; settings: ozone concentration 10 ppm; acting time 3 minutes
[5] = system: pseudomonas fluorescens; settings: phosphate buffer solution; ozone introduction; acting time 15 seconds
[6] = system: Salmonella typhimurium; settings: phosphate buffer solution; ozone introduction; acting time 15 seconds
[7] = system: F's dysentery bacillus; settings: phosphate buffer solution; ozone introduction; acting time 15 seconds
[8] = system: Vibrio cholerae; settings: phosphate buffer solution; ozone introduction; acting time 15 seconds
[9] = system: escherichia coli; settings: 10° C.; ozone concentration 0.3 ppm; acting time 1 minute
[10] = system: bacillus subtilis variant; settings: in the air; ozone concentration 2.5 mg/L; acting time 1 minute
[11] = system: bacillus subtilis variant; settings: in water; ozone concentration 4.6 mg/L; acting time 3 minutes
[12] = system: HAsAg; settings: in water; ozone concentration 13.6 ppm; acting time 30 minutes (cells shared with line above)
[13] = system: HBsAg; settings: in the air; ozone concentration 0.3 ppm; acting time 30 minutes
[14] = system: Influenza A virus; settings: ozone concentration 0.5 ppm; conditions and time not printed on the line (line above: in the air, 30 minutes)
[15] = system: poliovirus; settings: in water; ozone concentration 0.13 ppm; acting time 3 minutes
[16] = system: escherichia coli phage; settings: ozone concentration 0.09-0.8 ppm; acting time 3 minutes
[17] = system: simian rotavirus; settings: ozone concentration 0.25 ppm
[18] = system: human rotavirus; settings: ozone concentration 0.25 ppm
[19] = system: human immunodeficiency virus (HIV); settings: in serum; ozone concentration 4 ppm
[20] = system: aspergillus versicolor; settings: in the air; ozone concentration 9.6 ppm; acting time 100 minutes
[21] = system: cladosporium herbarum; settings: ozone concentration 23 ppm; acting time 30 minutes; killing rate cell shared with r37
[22] = system: penicillium nigricans; settings: ozone concentration 12.5 ppm; acting time 35 minutes; killing rate cell shared with r37
[23] = system: penicillium citrinum; settings: ozone concentration 15.4 ppm; acting time 30 minutes; killing rate cell shared with r37
[24] = system: fusarium oxysporum; settings: ozone concentration 15.5 ppm; acting time 20 minutes; killing rate cell shared with r37
[25] = system: penicillium; settings: in the air; acting time 30 minutes; no ozone concentration printed
[26] = system: mucor; settings: acting time 30 minutes; killing rate cell shared with penicillium line; no ozone concentration printed
[27] = system: aspergillus niger; settings: ozone concentration 1.5 ppm; acting time 1 minute; 'in water' printed on the line above
[28] = system: common bacteria such as Escherichia coli, streptococcus, Pseudomonas aeruginosa, Staphylococcus aureus, and toxic bacteria; settings: in 15 minutes in the ozone environment
[29] = system: bacteria

SMILES: O=[O+][O-] [Ozone, ozone]
- Killing rate [1]: 100%
- Killing rate [2]: 99.9%
- Killing rate [3]: 99.97%
- Killing rate [4]: 99.99%
- Killing rate [5]: 100%
- Killing rate [6]: 100%
- Killing rate [7]: 100%
- Killing rate [8]: 100%
- Killing rate [9]: 100%
- Killing rate [10]: 100%
- Killing rate [11]: 100%
- Killing rate [12]: 100%
- Killing rate [13]: 75%
- Killing rate [14]: 100%
- Killing rate [15]: 100%
- Killing rate (drop by log values) [16]: drop by 7 log log values
- Killing rate [17]: 100%
- Killing rate [18]: 100%
- Killing rate (drop by log values in titer) [19]: drop by 6 log values in titer
- Killing rate [20]: 100%
- Killing rate [21]: 100%
- Killing rate [22]: 100%
- Killing rate [23]: 100%
- Killing rate [24]: 100%
- Killing rate [25]: 93.8%
- Killing rate [26]: 93.8%
- Killing rate [27]: 100%
- sterilization rate [28]: above 99%
- sterilization rate faster than chlorine ([29]; compared with chlorine): 600-3000 times
- bactericidal ability higher than the ultraviolet rays ([29]; compared with ultraviolet rays): 20%
- sterilization rate faster in the water than chlorine ([29]; in the water, compared with chlorine): 600 times
